{"source": "patent US20240207453A1", "about": "“13C METHACETIN GRANULE, AND PREPARATION METHOD THEREFOR AND USE THEREOF” (BEIJING RICHEN-FORCE SCIENCE & TECHNOLOGY CO., LTD, priority 2021, published 2024)", "key": {"[1]": {"experiment": "comparison of stability (appearance, impurities) during storage", "format": "physicochemical", "description": "Experimental Groups 1 to 6: the 13C-methacetin granular formulations prepared in Examples 1 to 6 of the present disclosure\nControl Group 1: a powdered formulation. The respective adjuvant materials and the raw drug were weighed at a prescribed ratio and mixed uniformly in a mixer for 3 hours, whereby a powdered formulation or a powder was prepared.\nControl Group 2: another granular formulation.\n13C-methacetin has a low solubility in water, has a slow dissolution rate, should be stirred for a long time when being dissolved in 100 ml of water in an amount of 50 mg, and thus is not convenient in oral administration. […] The powders are agglomerated during storage. The addition of the adjuvant materials helps to improve the stability of the product, and the degraded impurities are less than those of the raw drug powder. […] By comparison, the developed granular formulation has better stability and water solubility, is stable in quality, and has high value in use."}, "[2]": {"experiment": "comparison of water solubility", "format": "physicochemical", "settings": "against the requirements of clinical use"}}}
{"molecule": "CC(=O)Nc1ccc(O[13CH3])cc1", "note": "[13C-methacetin, N-acetyl-p-anisidine (methoxy-13C)]", "values": [{"measurement": "Stability: Appearance (agglomeration)", "setting": "[1]", "value": "likely to agglomerate"}, {"measurement": "water solubility (in words)", "setting": "[2]", "value": "low"}]}
